Results: patent publication US4925649A, “Radioiodinated diacylglycerol analogues and methods of use” (The University of Michigan, priority 1987, dated 1990)

Test system: intracellular PK-C
Assay: [3H]PDBu binding to intact HL-60 cells
Format: cell-based, human
Details: 37° C., 30 minutes, FIG. 9, compared with naturally occurring diacylglycerol DiC8
Experimental: The diacylglycerol composition under investigation was stored in chloroform at -20° C. Prior to use, the diacylglycerol was dried under nitrogen and sonicated in RPMI-1640 growth media. HL-60 cells, derived from a human leukemia cell line, were cultured in RPMI-1640 growth media containing 10% horse serum. The cells were placed in fresh serum-containing growth media 24 hours prior to the experiment. Then, cells in log phase growth were placed in normal serum containing growth media with 20 mM HEPES buffer (pH 7.4) at a concentration of 5×10^6 cells/ml. The cells were incubated at 37° C. in 5% CO2 /air in the presence of [^3 H]PDBu and various concentrations of diacylglycerol.
Binding reactions were stopped after 30 minutes by filtering the cells over Whatman glass fiber GF/C filters and rinsing with cold phosphate buffered saline (pH 7.4). The filters were then dried and counted with a scintillation counter. Nonspecific binding was determined by adding 2 μM non-tritiated phorbol diester to parallel binding reactions. Specific [^3 H]PDBu binding was calculated by subtracting nonspecific [^3 H]PDBu from the total. All binding data are expressed in terms of specific binding. Specific binding typically represented 80% of the total.

CCCCCCCC(=O)OCC(CO)OC(=O)CCc1cccc(I)c1 (racemic) [OIPG, 1-octanoyl-2-[3-(m-iodophenyl)propanoyl]-rac-glycerol] was tested, and the “diacylglycerol inhibition of [3H]PDBu binding in intact HL-60 cells” value was “capable of entering intact cells and binding to intracellular PK-C in a manner similar to a naturally occurring diacylglycerol”.
